Experimental findings from patent US8486931B2, “Substituted oxindole compounds” (Abbott GmbH & Co. KG, priority 2007, dated 2013) are described below.

The target of the assay is T1, human vasopressin V1b receptor (Homo sapiens, UniProt P47901).
T1 construct: expressed in transfected cells; host or cells: CHO-K1 (cell line hV1b-3H2_CHO), membrane preparation
T1 sequence (P47901 1-424): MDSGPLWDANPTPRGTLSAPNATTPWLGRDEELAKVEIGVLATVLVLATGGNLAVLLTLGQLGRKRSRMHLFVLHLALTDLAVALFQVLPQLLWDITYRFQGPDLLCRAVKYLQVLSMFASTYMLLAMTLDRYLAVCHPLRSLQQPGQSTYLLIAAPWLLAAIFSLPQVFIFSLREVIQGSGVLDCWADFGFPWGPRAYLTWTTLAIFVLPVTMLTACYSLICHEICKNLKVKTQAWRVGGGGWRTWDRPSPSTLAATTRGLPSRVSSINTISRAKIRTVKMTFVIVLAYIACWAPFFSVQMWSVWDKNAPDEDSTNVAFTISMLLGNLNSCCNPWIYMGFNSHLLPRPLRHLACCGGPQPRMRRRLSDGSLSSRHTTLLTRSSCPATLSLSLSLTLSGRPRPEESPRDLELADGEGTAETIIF
Briefly: Vasopressin V1b receptor binding assay. Conditions: membranes from CHO-K1 cells with stably expressed human V1b receptors, 1.5 nM 3H-AVP displacement; with more than one stereogenic center: the diastereomer with stronger affinity. The method, then: Such compounds can be investigated in suitable assays which establish the affinity to a receptor, with the affinity constant Ki represening a measure of the potency of the compounds and a smaller value representing a larger potency. The compounds of the invention were tested in the following receptor binding assay for their affinity for the V1 b receptor.
Vasopressin V1 b Receptor Binding Assay:
The test substances were dissolved in a concentration of 10^−2 M in DMSO (dimethyl sulfoxide) and further diluted to 5×10^−4 M to 5×10^−9 M in DMSO. This series of DMSO predilutions was diluted 1:10 with assay buffer. The substance concentration was again diluted 1:5 in the assay mixture (2% DMSO in the mixture).
The membrane pellet was again homogenized and centrifuged as described and then taken up in 50 mM Tris-HCl, pH 7.4, homogenized and stored in aliquots frozen in liquid nitrogen at −190° C.
The incubation buffer was: 50 mM Tris, 10 mM MgCl2, 0.1% BSA, pH 7.4.
The nonspecific binding was determined with 1 μM AVP (Bachem #H1780). All determinations were carried out as triplicate determinations. After incubation (60 minutes at room temperature), the free radioligand was removed by vacuum filtration (Skatron cell harvester 7000) through Whatman GF/B glass fiber filter mats, and the filters were transferred into scintillation vials. The liquid scintillation measurement took place in a Tricarb model 2000 or 2200CA instrument (Packard). Conversion of the measured cpm into dpm was carried out with the aid of a standard quench series.
The binding parameters were calculated by nonlinear regression in SAS.
The above assay was used to measure the affinities of the compounds of the invention for the human vasopressin V1 b receptor and to determine with affinity constants (Ki).
In turn, `COc1ccc(C2(N3CCN(c4ccncc4)CC3)C(=O)N(S(=O)(=O)c3cccc4cccnc34)c3ccc(Cl)cc32)c(OC)c1` (racemic) [Example 1, (±)-5-Chloro-3-(2,4-dimethoxyphenyl)-3-(4-pyridin-4-ylpiperazin-1-yl)-1-(quinoline-8-sulfonyl)-1,3-dihydroindol-2-one] displayed an inhibitory constant (Ki) below 10 nM.
In the case of `COc1cccc(C2(N3CCN(c4ccncc4)CC3)C(=O)N(S(=O)(=O)c3cccc4cccnc34)c3ccc(Cl)cc32)c1OC` (racemic) [Example 2, (±)-5-Chloro-3-(2,3-dimethoxyphenyl)-3-(4-pyridin-4-ylpiperazin-1-yl)-1-(quinoline-8-sulfonyl)-1,3-dihydroindol-2-one] it was 10 to 50 nM; in that of `COc1ncccc1C1(N2CCN(c3ccncc3)CC2)C(=O)N(S(=O)(=O)c2cccc3cccnc23)c2ccc(C#N)cc21` (racemic) [Example 4, (±)-5-Cyano-3-(2-methoxypyridin-3-yl)-3-(4-pyridin-4-ylpiperazin-1-yl)-1-(quinoline-8-sulfonyl)-2,3-dihydro-1H-indol-2-one], 10 to 50 nM.
Turning to `CCOc1ncccc1C1(N2CCN(c3ccncc3)CC2)C(=O)N(S(=O)(=O)c2cccc3cccnc23)c2ccc(C#N)cc21` (racemic) [Example 5, (±)-5-Cyano-3-(2-ethoxypyridin-3-yl)-3-(4-pyridin-4-ylpiperazin-1-yl)-1-(quinoline-8-sulfonyl)-2,3-dihydro-1H-indol-2-one], the Ki is below 10 nM.
Consider `CCOc1ccccc1C1(N2CCN(c3ccncc3)CC2C)C(=O)N(S(=O)(=O)c2cccc3cccnc23)c2ccc(C#N)cc21` (racemic) [Example 6, (±)-5-Cyano-3-(2-ethoxyphenyl)-3-(2-methyl-4-pyridin-4-ylpiperazin-1-yl)-1-(quinoline-8-sulfonyl)-2,3-dihydro-1H-indol-2-one], for which the Ki was below 10 nM.
The value for `O=C1N(S(=O)(=O)c2cccc3cccnc23)c2ccc(Cl)cc2C1(c1ccccn1)N1CCN(c2ccncc2)CC1` (racemic) [Example 8, (±)-5-Chloro-3-pyridin-2-yl-3-(4-pyridin-4-ylpiperazin-1-yl)-1-(quinoline-8-sulfonyl)-1,3-dihydroindol-2-one] was 10 to 50 nM; that for `Cc1cccnc1C1(N2CCN(c3ccncc3)CC2)C(=O)N(S(=O)(=O)c2cccc3cccnc23)c2ccc(Cl)cc21` (racemic) [Example 9, (±)-5-Chloro-3-(3-methylpyridin-2-yl)-3-(4-pyridin-4-ylpiperazin-1-yl)-1-(quinoline-8-sulfonyl)-1,3-dihydroindol-2-one] was 10 to 50 nM; that for `COc1nc(Cl)ccc1C1(N2CCN(c3ccncc3)CC2)C(=O)N(S(=O)(=O)c2cccc3cccnc23)c2ccc(Cl)cc21` (racemic) [Example 10, (±)-5-Chloro-3-(6-chloro-2-methoxypyridin-3-yl)-3-(4-pyridin-4-ylpiperazin-1-yl)-1-(quinoline-8-sulfonyl)-1,3-dihydroindol-2-one] was below 10 nM.
`CCOc1ccccc1C1(N2CCN(c3ccncc3)CC2)C(=O)N(S(=O)(=O)c2ccc(C)cn2)c2ccc(C#N)cc21` (racemic) [Example 11, (±)-5-Cyano-3-(2-ethoxyphenyl)-1-(5-methylpyridine-2-sulfonyl)-3-(4-pyridin-4-yl-piperazin-1-yl)-2,3-dihydro-1H-indol-2-one] yielded a Ki of 10 to 50 nM.
`CCOc1ccccc1C1(N2CCN(c3ccncc3)CC2)C(=O)N(S(=O)(=O)c2ccc(Cl)c3cccnc23)c2ccc(C#N)cc21` (racemic) [Example 12, (±)-5-Cyano-1-(5-chloroquinoline-8-sulfonyl)-3-(2-ethoxyphenyl)-3-(4-pyridin-4-yl-piperazin-1-yl)-2,3-dihydro-1H-indol-2-one] returned a Ki of 10 to 50 nM.
Take `CCOc1ccc(OC)cc1C1(N2CCN(c3ccncc3)CC2)C(=O)N(S(=O)(=O)c2cccc3cccnc23)c2ccc(C#N)cc21` (racemic) [Example 13, (±)-5-Cyano-3-(2-ethoxy-5-methoxyphenyl)-3-(4-pyridin-4-yl-piperazin-1-yl)-1-(quinoline-8-sulfonyl)-2,3-dihydro-1H-indol-2-one]: the inhibition constant Ki was below 10 nM.
`CCOc1ccccc1C1(N2CCN(c3ccncc3)CC2)C(=O)N(S(=O)(=O)c2ccccn2)c2ccc(C#N)cc21` (racemic) [Example 14, (±)-5-Cyano-3-(2-ethoxyphenyl)-1-(pyridine-2-sulfonyl)-3-(4-pyridin-4-yl-piperazin-1-yl)-2,3-dihydro-1H-indol-2-one] showed a Ki of 10 to 50 nM.
On to `CCOc1ccccc1C1(N2CCN(c3ccncc3C)CC2)C(=O)N(S(=O)(=O)c2cccc3cccnc23)c2ccc(C#N)cc21` (racemic) [Example 15, (±)-5-Cyano-3-(2-ethoxyphenyl)-3-[4-(3-methylpyridin-4-yl)-piperazin-1-yl]-1-(quinoline-8-sulfonyl)-2,3-dihydro-1H-indol-2-one], for which the inhibition constant (Ki) was in the range of 10 to 50 nM.
The molecule `CCOc1ccccc1C1(N2CCN(c3ccncc3)CC2)C(=O)N(S(=O)(=O)c2cccc3c(C)ccnc23)c2ccc(C#N)cc21` (racemic) [Example 16, (±)-5-Cyano-3-(2-ethoxyphenyl)-1-(4-methylquinoline-8-sulfonyl)-3-(4-pyridin-4-yl-piperazin-1-yl)-2,3-dihydro-1H-indol-2-one] returned an inhibition constant Ki below 10 nM.
Regarding `CCOc1ccccc1C1(N2CCN(c3ccncc3)C(C)C2)C(=O)N(S(=O)(=O)c2cccc3cccnc23)c2ccc(C#N)cc21` (racemic) [Example 17, (±)-5-Cyano-3-(2-ethoxyphenyl)-3-(3-methyl-4-pyridin-4-ylpiperazin-1-yl)-1-(quinoline-8-sulfonyl)-2,3-dihydro-1H-indol-2-one], the inhibition constant (Ki) lay in the range of 10 to 50 nM.
On to `CCOc1ccc(OC)cc1C1(N2CCN(c3ccnc(C)c3)CC2)C(=O)N(S(=O)(=O)c2cccc3c(C)ccnc23)c2ccc(C#N)cc21` (racemic) [Example 18, (±)-5-Cyano-3-(2-ethoxy-5-methoxyphenyl)-3-[4-(2-methylpyridin-4-yl)piperazin-1-yl]-1-(4-methylquinoline-8-sulfonyl)-2,3-dihydro-1H-indol-2-one], for which the inhibition constant (Ki) was below 10 nM.
Regarding `COc1nc(Cl)ccc1C1(N2CCN(c3ccncc3)CC2)C(=O)N(S(=O)(=O)c2cccc3cccnc23)c2ccc(C#N)cc21` (racemic) [Example 19, (±)-5-Cyano-3-(6-chloro-2-methoxypyridin-3-yl)-3-(4-pyridin-4-ylpiperazin-1-yl)-1-(quinoline-8-sulfonyl)-2,3-dihydro-1H-indol-2-one], the inhibitory constant (Ki) fell in the range of 10 to 50 nM.
Take `CCOc1ccc(OC)cc1C1(N2C[C@@H]3C[C@H]2CN3c2ccncc2)C(=O)N(S(=O)(=O)c2ccc(C)cn2)c2ccc(C#N)cc21` (mixture of isomers) [Example 20, (±)-5-Cyano-3-(2-ethoxy-5-methoxyphenyl)-1-(5-methylpyridine-2-sulfonyl)-3-((1S, 4S)-5-pyridin-4-yl-2,5-diazabicyclo[2.2.1]hept-2-yl)-2,3-dihydro-1H-indol-2-one]: the Ki was in the range of 10 to 50 nM.
The value for `COc1ccc(OC(C)C)c(C2(N3CCN(c4ccncc4)CC3)C(=O)N(S(=O)(=O)c3ccc(C)cn3)c3ccc(C#N)cc32)c1` (racemic) [Example 21, (±)-5-Cyano-3-(2-isopropoxy-5-methoxyphenyl)-1-(5-methylpyridine-2-sulfonyl)-3-(4-pyridin-4-ylpiperazin-1-yl)-2,3-dihydro-1H-indol-2-one] was 10 to 50 nM; that for `CCOc1ccccc1C1(N2CCN(c3ccncc3)CC2)C(=O)N(S(=O)(=O)c2ccc(OC)cn2)c2ccc(C#N)cc21` (racemic) [Example 22, (±)-5-Cyano-3-(2-ethoxyphenyl)-1-(5-methoxypyridine-2-sulfonyl)-3-(4-pyridin-4-yl-piperazin-1-yl)-2,3-dihydro-1H-indol-2-one] was below 10 nM.
Consider `CCOc1nc(Cl)ccc1C1(N2CCN(c3ccncc3)CC2)C(=O)N(S(=O)(=O)c2ccc(C)cn2)c2ccc(C#N)cc21` (racemic) [Example 23, (±)-5-Cyano-3-(6-chloro-2-ethoxypyridin-3-yl)-1-(5-methylpyridine-2-sulfonyl)-3-(4-pyridin-4-ylpiperazin-1-yl)-2,3-dihydro-1H-indol-2-one], for which the Ki fell in the range of 10 to 50 nM.

As a reminder, the Ki is the equilibrium dissociation constant of an inhibitor or competing ligand from its target.
